Test results: ChEMBL document CHEMBL3217520, “Histamine H3 receptor ligands with a 3-cyclobutoxy motif: a novel and versatile constraint of the classical 3-propoxy linker” (Medchemcomm, 2010)
pEC50, pKi: −log10 of the molar value.

Columns and labels:
Histamine H3 receptor [1] = target: T1, Histamine H3 receptor (Homo sapiens, UniProt Q9Y5N1); assay: Inverse agonist activity at human histamine H3 receptor expressed in CHO cells assessed as inhibition of [35S]-GTPgammaS binding by liquid scintillation counting; format: functional, cell-based
T1 sequence (Q9Y5N1 whole entry): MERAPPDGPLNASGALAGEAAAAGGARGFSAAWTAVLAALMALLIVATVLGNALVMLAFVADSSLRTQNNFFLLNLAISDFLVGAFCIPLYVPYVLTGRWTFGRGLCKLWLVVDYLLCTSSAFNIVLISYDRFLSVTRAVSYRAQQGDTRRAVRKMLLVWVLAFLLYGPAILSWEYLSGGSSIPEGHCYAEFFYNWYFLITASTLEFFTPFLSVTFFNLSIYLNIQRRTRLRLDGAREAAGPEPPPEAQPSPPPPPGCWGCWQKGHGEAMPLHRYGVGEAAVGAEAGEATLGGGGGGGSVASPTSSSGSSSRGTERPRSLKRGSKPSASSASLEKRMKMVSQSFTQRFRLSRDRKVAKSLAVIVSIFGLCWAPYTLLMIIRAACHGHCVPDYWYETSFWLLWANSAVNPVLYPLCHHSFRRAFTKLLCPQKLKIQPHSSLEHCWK

Histamine H3 receptor [2] = target: T1, Histamine H3 receptor; assay: Displacement of [3H]-Nalpha-methylhistamine from human histamine H3 receptor expressed in CHO cells by liquid scintillation counting; format: cell-based

Compound | pEC50 (Histamine H3 receptor [1]) | pKi (Histamine H3 receptor [2])
COC(=O)c1oc(-c2ccc(O[C@H]3C[C@H](N4CCCCC4)C3)cc2)nc1C | 8.80 | 8.70
c1cc(-c2nc(CN3CCCCC3)co2)ccc1O[C@H]1C[C@H](N2CCCCC2)C1 | 8.50 | 8.90
c1cc(C2=NC3(CCCCC3)CO2)ccc1O[C@H]1C[C@@H](N2CCCCC2)C1 | 7.10 | 6.60
CC1(C)COC(c2ccc(O[C@H]3C[C@H](N4CCCCC4)C3)cc2)=N1 | 9.20 | 8.10
c1cc(C2=NC3(CCCCC3)CO2)ccc1O[C@H]1C[C@H](N2CCCCC2)C1 | 8.70 | 8.70

More lines, in order of rising pEC50 (Histamine H3 receptor [1]), values ahead:

pEC50 (Histamine H3 receptor [1]) | pKi (Histamine H3 receptor [2]) | Compound
7.80 | 6.80 | CC1(C)COC(c2ccc(OCCCN3CCCCC3)cc2)=N1
8.10 | 7.10 | c1cc(C2=NC3(CCCCC3)CO2)ccc1OCCCN1CCCCC1
8.80 | 8.20 | c1cc(-c2nc(CN3CCCCC3)co2)ccc1OCCCN1CCCCC1
